Measurements taken from PMC7318222, “A Family of Water‐Immiscible, Dipolar Aprotic, Diamide Solvents from Succinic Acid” (Chemsuschem, 2020).

Columns and labels:
[1] = target: T1, PXR (Homo sapiens, UniProt O75469); assay: PXR CALUX reporter gene assay; type: cell-based; design: key: –: no effect observed up to the highest test concentration; conditions: PC10, 24 h exposure
T1 construct: expression construct for the full-length human receptor under investigation; expressed in transfected cells; host or cells: human U2-OS cells (ATCC HTB-96), stably transfected
T1 sequence (O75469 1-434): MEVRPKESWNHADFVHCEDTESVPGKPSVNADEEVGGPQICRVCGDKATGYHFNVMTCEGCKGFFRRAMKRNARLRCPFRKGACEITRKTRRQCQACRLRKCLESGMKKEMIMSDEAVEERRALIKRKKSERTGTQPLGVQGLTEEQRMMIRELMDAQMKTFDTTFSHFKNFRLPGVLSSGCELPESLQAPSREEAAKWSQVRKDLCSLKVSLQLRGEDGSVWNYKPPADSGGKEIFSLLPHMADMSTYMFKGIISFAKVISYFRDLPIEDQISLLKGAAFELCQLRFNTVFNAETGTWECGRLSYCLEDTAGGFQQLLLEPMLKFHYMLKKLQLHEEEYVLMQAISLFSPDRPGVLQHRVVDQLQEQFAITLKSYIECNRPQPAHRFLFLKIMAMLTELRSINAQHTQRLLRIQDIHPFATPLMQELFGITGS
Source text: PXR activation leads to the induction of metabolic enzymes, resulting in enhanced metabolism of a wide range of compounds. […]
(§1) Polyarylethersulfone of 55,000 Da were obtained from INGE.BASF, Germany. The CALUX cell lines have been described previously.[1] They are based on human U2-OS cells (ATCC, HTB-96) stably transfected with an expression construct for the full-length human receptor under investigation, and a reporter construct consisting of multimerized responsive elements for the cognate receptor coupled to a minimal promoter element (TATA) and a luciferase gene. Cells were maintained as described previously,[2] using cell culture media and supplements from Fisher Scientific as described in the experimental procedures section. […]
(§2) In vitro reporter gene assays
(§3) The automated CALUX assays were carried out similarly as described earlier,[12] with some adaptations. In brief, the assay was performed in CO2 independent medium (Fisher Scientific, […]
(§4) supplement (Fisher Scientific, 11574466), 10 U/mL penicillin and 10 µg/mL streptomycin. A cell suspension in assay medium was made of 1 × 10^5cells/mL, and white 384-wells plates were seeded with 30 µl cell suspension/well. After 24 h, exposure medium was prepared. A dilution series in 0.5log unit increments of each test compound (in DMSO) was added to a 96-wells plate containing assay medium (2% v/v). Of this exposure mixture, 30 µl was added to the assay plates containing the CALUX cells, resulting in a final DMSO concentration of 1%. Additionally, DMSO blanks and a full dose response curve of the relevant reference compound were included on each plate. All samples were tested in triplicate. The preparation of the compound dilution series as well as the exposure of the cells were performed on a Hamilton StarLET liquid handling robot coupled to a Cytomat incubator.
(§5) Directly after exposure, plates were sealed with non-breathing plate seals (Plate sealer, easy seal transparent; Greiner-Bio-One, 676001). After 24 h the exposure medium was removed using an EL406 washer-dispenser (BioTek) and 10 µl/well triton lysisbuffer was added by the EL406.
(§6) Subsequently, the luciferase signal was measured in a luminometer (InfinitePro coupled to a Connect Stacker, both TECAN). In order to be able to detect receptor antagonism, several assays were also performed in antagonistic mode. The assay procedure was as described above, with the only exception that the EC50 concentration of the reference agonist was present during the exposure.
(§7) The luminometer data was analysed as follows; the average of the triplicate wells was determined, and the average blank (DMSO) value was subtracted. For receptor-based assays the maximum response elicited by the reference compound was set to 100% (full receptor- or pathway activation), and the other values were scaled accordingly. GraphPad Prism was used to fit a sigmoidal curve through the data (four parameters, variable slope). […] For antagonist- and cytotoxicity experiments, PC20 values were determined instead, which was defined as the concentration where the test compound causes a 20% decrease in the basal signal, which was […]
(§8) curve, the signal induction above background (DMSO) was determined, and the concentration where the compound elicited a 1.5-fold increase above background was used as LEC.

[2] = tested on: AP1; assay: AP1 CALUX assay (cell cycle control); type: cell-based, human; design: key: –: no effect observed up to the highest test concentration; conditions: cell signaling pathway assay, 24 h exposure
Source text: Six of the CALUX assays (TCF through p53) detect activation of several cellular signaling pathways, which are indicative of general stress and acute toxicity, but also a range of more specific types of toxicity, including reproductive toxicity. […]
DCM ≥99.5%, chloroform ≥99.5%, DMSO ≥99.0% were purchased from VWR. […]
as §1, §2, §3, §4, §5, §6, §7, §8

Row | SMILES | LEC PXR [1] | LEC AP1 [2]
1 | CCCCN(C)C(=O)CCC(=O)N(C)CCCC [MBSA, N,N′‐dimethyl‐N,N′‐dibutylsuccindiamide] | −3.9 Log M | –
2 | CN1CCCC1=O [NMP, N‐methyl‐2‐pyrrolidone, reference compound] | – | −1.5 Log M
3 | CCCCN(CCCC)C(=O)CCC(=O)N(CCCC)CCCC [TBSA, N,N,N′,N′‐tetrabutylsuccindiamide] | −6.1 Log M | –

The next lines start with results.

Row | LEC PXR [1] | SMILES | LEC AP1 [2]
4 | −5.0 Log M | CCCCN(CC)C(=O)CCC(=O)N(CC)CCCC [EBSA, N,N′‐diethyl‐N,N′‐dibutylsuccindiamide] | –
5 | −3.2 Log M | CCCCN1CCCC1=O [NBP, N‐Butylpyrrolidinone, reference compound] | –
